pKd: −log10 of the molar value. The source made the active and inactive calls. The calls are words filed in the database; no cut-off is given here.
Assays:
[1] = target: T1, Cell division protein FtsZ (Staphylococcus aureus, UniProt P0A031); assay: Binding affinity to Staphylococcus aureus FtsZ assessed as dissociation constant by isothermal titration calorimetry
T1 sequence (P0A031 whole entry): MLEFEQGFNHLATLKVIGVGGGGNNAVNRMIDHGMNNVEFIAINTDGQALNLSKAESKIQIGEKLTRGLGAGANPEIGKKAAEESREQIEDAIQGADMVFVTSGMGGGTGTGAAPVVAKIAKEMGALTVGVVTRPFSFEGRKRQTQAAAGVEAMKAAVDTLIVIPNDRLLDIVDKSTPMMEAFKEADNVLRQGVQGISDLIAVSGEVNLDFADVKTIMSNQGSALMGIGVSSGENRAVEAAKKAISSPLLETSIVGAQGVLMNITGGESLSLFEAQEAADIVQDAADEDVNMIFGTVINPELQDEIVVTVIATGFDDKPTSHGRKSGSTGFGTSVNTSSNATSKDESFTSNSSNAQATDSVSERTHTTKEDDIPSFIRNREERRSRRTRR

Escherichia coli [2] = assay: Antibacterial activity against NDM-1 expressing Escherichia coli ATCC BAA2469 assessed as inhibition of bacterial growth incubated for 20 to 24 hrs by broth micro dilution method; type: functional; conditions: time 20-24 hrs
[3] = Ratio of MBC for bactericidal activity against Staphylococcus aureus ATCC 43300 to MIC for antibacterial activity against Staphylococcus aureus ATCC 43300; type: functional
Acinetobacter baumannii = assay: Antibacterial activity against multi-drug resistant Acinetobacter baumannii ATCC 19606 assessed as inhibition of bacterial growth incubated for 20 to 24 hrs by broth micro dilution method; type: functional; conditions: time 20-24 hrs
[4] = target: T2, Cell division protein FtsZ (Staphylococcus aureus) (UniProt P0A031); assay: Induction of Staphylococcus aureus FtsZ polymerization expressed in Escherichia coli BL21 (DE3) assessed as increase in absorbance at 2 to 8 ug/ml in presence of GTP by microplate reader method; conditions: dose 2-8 µg/ml, DDE = dose-dependent effect
T2 sequence (whole entry): T1 sequence (P0A031 whole entry)

Escherichia coli [5] = assay: Antibacterial activity against Escherichia coli ATCC 8739 assessed as inhibition of bacterial growth incubated for 20 to 24 hrs by broth micro dilution method; type: functional; conditions: time 20-24 hrs
[6] = target: T2, Cell division protein FtsZ (Staphylococcus aureus); assay: Induction of Staphylococcus aureus FtsZ polymerization expressed in Escherichia coli BL21 (DE3) assessed as increase in absorbance at 2 to 8 ug/ml by microplate reader method; conditions: dose 2-8 µg/ml
Bacillus subtilis [7] = assay: Bactericidal activity against Bacillus subtilis CMCC (B) 63501 assessed as inhibition of bacterial growth incubated for 24 hrs by resazurin dye based microtiter plate assay; type: functional
Enterococcus faecium [8] = assay: Antibacterial activity against vancomycin resistant Enterococcus faecium ATCC 700221 assessed as inhibition of bacterial growth incubated for 20 to 24 hrs by broth micro dilution method; type: functional; conditions: time 20-24 hrs
Bacillus subtilis [9] = assay: Antibacterial activity against Bacillus subtilis CMCC (B) 63501 assessed as inhibition of bacterial growth incubated for 20 to 24 hrs by broth micro dilution method; type: functional; conditions: time 20-24 hrs
Staphylococcus aureus [10] = assay: Antibacterial activity against methicillin-resistant Staphylococcus aureus ATCC BAA41 assessed as inhibition of bacterial growth incubated for 24 hrs by checker board assay; type: functional
Bacillus subtilis [11] = assay: Induction of drug resistance against Bacillus subtilis CMCC (B) 63501 measured after 16 passages; type: functional; conditions: dose <= 64.0 µg/ml, time 30.0 min
[12] = target: T2, Cell division protein FtsZ (Staphylococcus aureus); assay: Binding affinity to Staphylococcus aureus FtsZ assessed as increase in alpha helix structure at 8 ug/ml incubated for 30 mins by circular dichroism method; conditions: dose 8.0 µg/ml
[13] = target: T2, Cell division protein FtsZ (Staphylococcus aureus); assay: Binding affinity to Staphylococcus aureus FtsZ assessed as decrease in random coil structure at 8 ug/ml incubated for 30 mins by circular dichroism method; conditions: dose 8.0 µg/ml
Staphylococcus aureus [14] = assay: Bactericidal activity against Staphylococcus aureus ATCC 29213 assessed as inhibition of bacterial growth incubated for 24 hrs by resazurin dye based microtiter plate assay; type: functional
Staphylococcus aureus [15] = assay: Antibacterial activity against methicillin-resistant Staphylococcus aureus ATCC 43300 assessed as inhibition of bacterial growth incubated for 20 to 24 hrs by broth micro dilution method; type: functional; conditions: time 20-24 hrs
Erythrocyte = assay: Hemolytic activity in Kunming mouse erythrocyte at 1 to 64 ug/ml incubated for 1 hr; type: toxicity, cell-based; conditions: dose 1-64 µg/ml
Staphylococcus aureus [16] = assay: Antibacterial activity against vancomycin-intermediate Staphylococcus aureus Mu50 assessed as inhibition of bacterial growth incubated for 20 to 24 hrs by broth micro dilution method; type: functional; conditions: time 20-24 hrs
Bacillus subtilis [17] = assay: Induction of morphological changes in Bacillus subtilis CMCC (B) 63501 assessed as elongation of bacterial cell at 0.5 times MIC for 4 hrs (reference value: 3 to 5 um) by microscopic analysis; type: functional
Enterococcus faecium [18] = assay: Bactericidal activity against Enterococcus faecium ATCC 700221 assessed as inhibition of bacterial growth incubated for 24 hrs by resazurin dye based microtiter plate assay; type: functional
[19] = Cytotoxicity against human HK-2 cells incubated for 48 hrs by MTT assay; type: toxicity, cell-based
Staphylococcus aureus [20] = assay: Antibacterial activity against Staphylococcus aureus ATCC 29213 infected in HK-2 cells assessed as inhibition of bacterial growth incubated for 20 to 24 hrs by broth micro dilution method; type: functional; conditions: time 20-24 hrs
Escherichia coli [21] = assay: Antibacterial activity against Escherichia coli ATCC 25922 assessed as inhibition of bacterial growth incubated for 20 to 24 hrs by broth micro dilution method; type: functional; conditions: time 20-24 hrs
Staphylococcus aureus [22] = assay: Bactericidal activity against Staphylococcus aureus ATCC 43300 assessed as inhibition of bacterial growth incubated for 24 hrs by resazurin dye based microtiter plate assay; type: functional
Staphylococcus aureus [23] = assay: Antibacterial activity against methicillin-resistant Staphylococcus aureus ATCC BAA-1720 assessed as inhibition of bacterial growth incubated for 20 to 24 hrs by broth micro dilution method; type: functional; conditions: time 20-24 hrs
[24] = target: T2, Cell division protein FtsZ (Staphylococcus aureus); assay: Binding affinity to Staphylococcus aureus FtsZ assessed as decrease in beta turn structure at 8 ug/ml incubated for 30 mins by circular dichroism method; conditions: dose 8.0 µg/ml
Staphylococcus aureus [25] = assay: Antibacterial activity against Staphylococcus aureus ATCC 29213 assessed as inhibition of bacterial growth incubated for 20 to 24 hrs by broth micro dilution method; type: functional; conditions: time 20-24 hrs
Staphylococcus aureus [26] = assay: Induction of morphological changes in Staphylococcus aureus ATCC 29213 assessed as enlargement of cell size at 0.5 times MIC for 4 hrs by microscopic analysis; type: functional, organism-based
[27] = Cytotoxicity against mouse L929 cells incubated for 48 hrs by MTT assay; type: toxicity, cell-based
[28] = test system: Staphylococcus epidermidis; assay: Antibacterial activity against Staphylococcus epidermidis ATCC 12228 assessed as inhibition of bacterial growth incubated for 20 to 24 hrs by broth micro dilution method; type: functional; conditions: time 20-24 hrs
Staphylococcus aureus [29] = assay: Synergistic antibacterial activity against methicillin-resistant Staphylococcus aureus ATCC BAA41 assessed as inhibition of bacterial growth incubated for 24 hrs in presence of methicillin by checker board assay; type: functional
[30] = Ratio of MBC for bactericidal activity against Staphylococcus aureus ATCC 29213 to MIC for antibacterial activity against Staphylococcus aureus ATCC 29213; type: functional
Klebsiella pneumoniae = assay: Antibacterial activity against NDM-1 expressing Klebsiella pneumoniae ATCC BAA 2470 assessed as inhibition of bacterial growth incubated for 20 to 24 hrs by broth micro dilution method; type: functional; conditions: time 20-24 hrs
Pseudomonas aeruginosa = assay: Antibacterial activity against […] Pseudomonas aeruginosa ATCC 27853 assessed as inhibition of bacterial growth incubated for 20 to 24 hrs by broth micro dilution method; type: functional; conditions: time 20-24 hrs
[31] = target: T2, Cell division protein FtsZ (Staphylococcus aureus); assay: Binding affinity to Staphylococcus aureus FtsZ assessed as decrease in other structure at 8 ug/ml incubated for 30 mins by circular dichroism method; conditions: dose 8.0 µg/ml
Enterococcus faecalis = assay: Antibacterial activity against Enterococcus faecalis ATCC 29212 assessed as inhibition of bacterial growth incubated for 20 to 24 hrs by broth micro dilution method; type: functional; conditions: time 20-24 hrs
Staphylococcus aureus [32] = assay: Antibacterial activity against Staphylococcus aureus ATCC 29213 infected in L929 cells assessed as inhibition of bacterial growth incubated for 20 to 24 hrs by broth micro dilution method; type: functional; conditions: time 20-24 hrs
Staphylococcus aureus [33] = assay: Antibacterial activity against methicillin-resistant Staphylococcus aureus ATCC BAA41 assessed as fractional inhibitory concentration index incubated for 24 hrs by checker board assay; type: functional
Enterococcus faecium [34] = assay: Antibacterial activity against Enterococcus faecium ATCC 49624 assessed as inhibition of bacterial growth incubated for 20 to 24 hrs by broth micro dilution method; type: functional; conditions: time 20-24 hrs
Staphylococcus aureus [35] = assay: Induction of drug resistance against Staphylococcus aureus ATCC 29213 assessed as fold increase in MIC after 16 passage; type: functional
Staphylococcus aureus [36] = assay: Antibacterial activity against methicillin-resistant Staphylococcus aureus ATCC 33592 assessed as inhibition of bacterial growth incubated for 20 to 24 hrs by broth micro dilution method; type: functional; conditions: time 20-24 hrs
Enterococcus faecium [37] = assay: Antibacterial activity against vancomycin-resistant Enterococcus faecium clinical isolate assessed as inhibition of bacterial growth incubated for 20 to 24 hrs by broth micro dilution method; type: functional; conditions: time 20-24 hrs
[38] = target: T2, Cell division protein FtsZ (Staphylococcus aureus); assay: Binding affinity to Staphylococcus aureus FtsZ assessed as equilibrium binding constant by isothermal titration calorimetry
[39] = Ratio of MBC for bactericidal activity against Bacillus subtilis CMCC (B) 63501 to MIC for antibacterial activity against Bacillus subtilis CMCC (B) 63501; type: functional
[40] = Ratio of MBC for bactericidal activity against Enterococcus faecium ATCC 700221 to MIC for antibacterial activity against Enterococcus faecium ATCC 700221; type: functional

Structure (SMILES): CC1CCN(c2cc(/C=C/c3ccc(N(C)C)cc3)c3ccccc3[n+]2C)CC1.[I-]
- pKd [1]: 5.41
- MIC (Escherichia coli [2]): 64 µg/mL
- Ratio [3]: >4
- MIC (Acinetobacter baumannii): > 64 µg/mL
- Activity [4]: Dde
- MIC (Escherichia coli [5]): 64 µg/mL
- Activity [6]: Active
- MBC (Bacillus subtilis [7]): 16 µg/mL
- MIC (Enterococcus faecium [8]): 2 µg/mL
- MIC (Bacillus subtilis [9]): 8 µg/mL
- MIC (Staphylococcus aureus [10]): 16 µg/mL
- Activity (Bacillus subtilis [11]): Active
- Activity [12]: Active
- Activity [13]: Active
- MBC (Staphylococcus aureus [14]): 16 µg/mL
- MIC (Staphylococcus aureus [15]): 4 µg/mL
- IC5 (Erythrocyte): 32 µg/mL
- MIC (Staphylococcus aureus [16]): 4 µg/mL
- Activity (Bacillus subtilis [17]): 30 um
- MBC (Enterococcus faecium [18]): 8 µg/mL
- IC50 at 48 h [19]: 8.89 µg/mL
- MIC (Staphylococcus aureus [20]): 2 µg/mL
- MIC (Escherichia coli [21]): 32 µg/mL
- MBC (Staphylococcus aureus [22]): 32 µg/mL
- MIC (Staphylococcus aureus [23]): 4 µg/mL
- Activity [24]: Active
- MIC (Staphylococcus aureus [25]): 2 µg/mL
- Activity (Staphylococcus aureus [26]): Active
- IC50 at 48 h [27]: 11.3 µg/mL
- MIC [28]: 1 µg/mL
- MIC (Staphylococcus aureus [29]): 4 µg/mL
- Ratio [30]: >4
- MIC (Klebsiella pneumoniae): > 64 µg/mL
- MIC (Pseudomonas aeruginosa): > 64 µg/mL
- Activity [31]: Active
- MIC (Enterococcus faecalis): 16 µg/mL
- MIC (Staphylococcus aureus [32]): 2 µg/mL
- fractional inhibitory concentration index (FICI) (Staphylococcus aureus [33]): 0.3125
- MIC (Enterococcus faecium [34]): 16 µg/mL
- fold change (FC) (Staphylococcus aureus [35]): 8
- MIC (Staphylococcus aureus [36]): 4 µg/mL
- MIC (Enterococcus faecium [37]): 16 µg/mL
- Kb [38]: 2.08 10^5/M
- Ratio [39]: 2
- Ratio [40]: 4

Structure (SMILES): CCCCCNc1cc(/C=C/c2ccc(N(C)C)cc2)[n+](C)c2ccccc12.[I-]
- pKd [1]: 5.62
- MIC (Escherichia coli [2]): > 64 µg/mL
- Ratio [3]: 4
- MIC (Acinetobacter baumannii): > 64 µg/mL
- Activity [4]: Dde
- MIC (Escherichia coli [5]): > 64 µg/mL
- MBC (Bacillus subtilis [7]): 4 µg/mL
- MIC (Enterococcus faecium [8]): 4 µg/mL
- MIC (Bacillus subtilis [9]): 4 µg/mL
- MIC (Staphylococcus aureus [10]): 4 µg/mL
- Activity [12]: Active
- Activity [13]: Active
- MBC (Staphylococcus aureus [14]): 8 µg/mL
- MIC (Staphylococcus aureus [15]): 2 µg/mL
- MIC (Staphylococcus aureus [16]): 4 µg/mL
- Activity (Bacillus subtilis [17]): 30 um
- MBC (Enterococcus faecium [18]): 8 µg/mL
- MIC (Escherichia coli [21]): 64 µg/mL
- MBC (Staphylococcus aureus [22]): 8 µg/mL
- MIC (Staphylococcus aureus [23]): 1 µg/mL
- Activity [24]: Active
- MIC (Staphylococcus aureus [25]): 2 µg/mL
- Activity (Staphylococcus aureus [26]): Active
- MIC [28]: 1 µg/mL
- MIC (Staphylococcus aureus [29]): 0.5 µg/mL
- Ratio [30]: 4
- MIC (Klebsiella pneumoniae): > 64 µg/mL
- MIC (Pseudomonas aeruginosa): > 64 µg/mL
- Activity [31]: Active
- MIC (Enterococcus faecalis): 4 µg/mL
- fractional inhibitory concentration index (FICI) (Staphylococcus aureus [33]): 0.375
- MIC (Enterococcus faecium [34]): 8 µg/mL
- MIC (Staphylococcus aureus [36]): 2 µg/mL
- MIC (Enterococcus faecium [37]): 4 µg/mL
- Kb [38]: 2.01 10^5/M
- Ratio [39]: 1
- Ratio [40]: 2

From ChEMBL document CHEMBL5154863, “Design and synthesis of quinolinium-based derivatives targeting FtsZ for antibacterial evaluation and mechanistic study” (Eur J Med Chem, 2022)
